Series [1] has as its system Human ciliated epithelium cells.
Description: The toleration of liposomal PVP-iodine solutions for nasal applications was studied by investigating the influence of different test substances on ciliated epithelium cells, the most sensible cells of the mucous membrane. A cytotoxic damage of these cells which would cause a restriction of the niucoclliar clearance can. be determined by a detectable decrease of the ciliary vibration.
Human ciliated epithelium cells were analysed by an in-vitro method which enables the determination of the ciliary activity or ciliary vibration. The corresponding cells were exposed and incubated with 100 je.I test substance at a temperature of 37 C. After an incubation period of 5 minutes the ciliary vibration, was measured.
By using this in-vltro method a nutriant solution (Dulbeco) as standard, a 0.2% chlorohexidine solution (typical antiseptic agent), conventional polyvidone iodine solutions (Betaisodona) .of different concentrations (5.0%, 2.5% and 1.25% PVP-iodine) and a liposomal solution containing 4.5% of PVP-iodine were tested.
Another series relates to human viruses. The settings on record: aqueous solution mixed with viral suspensions; cited from earlier work.

Here are results for 2 compounds from US20150313934A1, “Use of PVP-Iodine Liposomes for Treatment of Herpes” (priority 2003, published 2015).

On to `N=C(NCCCCCCNC(=N)NC(=N)Nc1ccc(Cl)cc1)NC(=N)Nc1ccc(Cl)cc1` [chlorohexidine], for which the “ciliary activity / ciliary vibration” value in series [1] is “decrease of the measured ciliary vibration”. On to “poly(1-vinyl-2-pyrrolidin-2-on)-iodine complex [PVP-iodine]”, for which, in the series with human viruses, the “antiviral effect on viral suspensions” value is recorded as “effective antiviral compound”.
